From US3939204A, “Radioactive functional diagnostic agents” (priority 1972, dated 1976)
Structures can show the parent of a compound that is named as a salt.

Experiments:
[1] = distribution in the body as function of time after intravenous administration, measured by scinticamera; type: in vivo, human; conditions: for Time of Appearance in Gallbladder / Time of Appearance in Intestine / Blood T 1/2 / Liver T 1/2 / Maximum Liver Accumulation: approximately 0.25 millicurie per injection; for Blood T 1/2: elimination from blood into liver cells; for Liver T 1/2: elimination from liver cells into bile ducts and gallbladder; for Maximum Liver Accumulation: time of maximum accumulation
Method: These compounds were tested intravenously on humans. The total quantity of radioactivity per injection of the respectively injected aqueous test solution was approximately 0.25 millicurie in each instance.
The distribution in the body as function of time after administration was measured by scinticamera in the usual manner.

[2] = background statement in words; cited from earlier work

For O=C(COCC(=O)Nc1c(I)cc(I)c(C(=O)O)c1I)Nc1c(I)cc(I)c(C(=O)O)c1I [A, diglycolic acid bis(3-carboxy-2,4,6-triiodoanilide)-131-iodine N-methylglucamine salt], which “Time of Appearance in Gallbladder” value ([1]; humans, intravenous) is on record?
The value was 25.5 min.

What about the “Time of Appearance in Intestine” value ([1]; humans, intravenous) of the same compound?
Its value is 14.6 min.

What about the “Blood T 1/2” value ([1]; humans, intravenous) of the same compound?
The value was 3.22 min.

And the “Liver T 1/2” value ([1]; humans, intravenous)?
Its value is 3.19 min.

And the “Maximum Liver Accumulation” value ([1]; humans, intravenous)?
Its value is 16.5 min.

And the “enterohepatic cycle (reabsorption from the intestine into the bloodstream)” value ([1]; humans, intravenous, in words)?
Its value is “absence of an enterohepatic cycle”.

And the “liver passage (from T 1/2 values)” value ([1]; humans, intravenous, in words)?
The value was “markedly faster liver passage”.

And the “times of appearance in the intestine and gallbladder, compared with B and C” value ([1]; humans, intravenous, in words)?
Its value is “markedly shorter than in the comparison substances B and C”.

And the concomitant gallbladder representation ([1]; patients having a healthy liver)?
The concomitant gallbladder representation was “a concomitant gallbladder representation is obtained”.

With O=C1OC2(c3cc(I)c(O)c(I)c3Oc3c2cc(I)c(O)c3I)c2c(Cl)c(Cl)c(Cl)c(Cl)c21 [B, tetrachlorotetraiodofluorescein-131-iodine sodium salt] as the compound, how does the “Time of Appearance in Gallbladder” value ([1]; humans, intravenous) read?
Its value is 45 min.

And the “Time of Appearance in Intestine” value ([1]; humans, intravenous)?
Its value is 45 min.

And the “Blood T 1/2” value ([1]; humans, intravenous)?
Its value is 8.14 min.

What about the “Liver T 1/2” value ([1]; humans, intravenous) of the same compound?
The value was 10.24 min.

What about the “Maximum Liver Accumulation” value ([1]; humans, intravenous) of the same compound?
The value was 30 min.

And the “elimination from the liver” value [2]?
The value was “after a longer period of time”.

And the “maximum accumulation in the liver” value [2]?
Its value is “after a longer period of time”.
